Counter-ions that a name gives are not always drawn. Like-named read-outs stand apart in the source and are kept apart here.
Experiments:
Assay in all cases: AK assay 384-well format, Prestwick library screening
[1] = system: A. baumannii strain 98-37-09; assay type: cell-based, Acinetobacter baumannii; settings: 50 μM final drug concentration; for fold induction at 50 µM: Acinetobacter baumannii, 983709, 3 h
[2] = system: E. faecium; assay type: cell-based, Enterococcus faecium; settings: 50 μM final drug concentration; for fold induction at 50 µM: Enterococcus faecium, 3 h
[3] = system: E. cloacae; assay type: cell-based, Enterobacter cloacae; settings: 50 μM final drug concentration; for fold induction at 50 µM: Enterobacter cloacae, 3 h
[4] = system: K. pneumoniae; assay type: cell-based, Klebsiella pneumoniae; settings: 50 μM final drug concentration; for fold induction at 50 µM: Klebsiella pneumoniae, 3 h
[5] = system: P. aeruginosa; assay type: cell-based, Pseudomonas aeruginosa; settings: 50 μM final drug concentration; for fold induction at 50 µM: Pseudomonas aeruginosa, 3 h
[6] = system: S. aureus strain USA300-0114; assay type: cell-based, Staphylococcus aureus; settings: 50 μM final drug concentration; for fold induction at 50 µM: Staphylococcus aureus, USA300, 3 h
[7] = system: E. coli; assay type: cell-based, Escherichia coli; settings: 50 μM final drug concentration; for fold induction at 50 µM: Escherichia coli, 3 h
[8] = planktonic A. baumannii, 384-well, cutoff for positive-scoring molecules 3-fold increase, read-out: AK-based Prestwick Library Screening Results: A. baumannii (increase in extracellular AK activity)
[9] = planktonic E. faecium, 384-well, cutoff for positive-scoring molecules 3-fold increase, read-out: AK-based Prestwick Library Screening Results: E. faecium (increase in extracellular AK activity)
[10] = planktonic E. cloacae, 384-well, cutoff for positive-scoring molecules 3-fold increase, read-out: AK-based Prestwick Library Screening Results: E. cloacae (increase in extracellular AK activity)
[11] = planktonic K. pneumoniae, 384-well, cutoff for positive-scoring molecules 3-fold increase, read-out: AK-based Prestwick Library Screening Results: K. pneumoniae (increase in extracellular AK activity)
[12] = planktonic P. aeruginosa, 384-well, cutoff for positive-scoring molecules 3-fold increase, read-out: AK-based Prestwick Library Screening Results: P. aeruginosa (increase in extracellular AK activity)
[13] = planktonic S. aureus, 384-well, cutoff for positive-scoring molecules 3-fold increase, read-out: AK-based Prestwick Library Screening Results: S. aureus (increase in extracellular AK activity)
[14] = planktonic E. coli, 384-well, cutoff for positive-scoring molecules 3-fold increase, read-out: AK-based Prestwick Library Screening Results: E. coli (increase in extracellular AK activity)
[15] = 384-well format, cutoff for positive-scoring molecules 3-fold increase, read-out: AK-based Prestwick Library Screening Results, A. baumannii (increase in extracellular AK activity)
[16] = 384-well format, cutoff for positive-scoring molecules 3-fold increase, read-out: AK-based Prestwick Library Screening Results, E. faecium (increase in extracellular AK activity)
[17] = 384-well format, cutoff for positive-scoring molecules 3-fold increase, read-out: AK-based Prestwick Library Screening Results, E. cloacae (increase in extracellular AK activity)
[18] = 384-well format, cutoff for positive-scoring molecules 3-fold increase, read-out: AK-based Prestwick Library Screening Results, K. pneumoniae (increase in extracellular AK activity)
[19] = 384-well format, cutoff for positive-scoring molecules 3-fold increase, read-out: AK-based Prestwick Library Screening Results, P. aeruginosa (increase in extracellular AK activity)
[20] = 384-well format, cutoff for positive-scoring molecules 3-fold increase, read-out: AK-based Prestwick Library Screening Results, S. aureus (increase in extracellular AK activity)
[21] = 384-well format, cutoff for positive-scoring molecules 3-fold increase, read-out: AK-based Prestwick Library Screening Results, E. coli (increase in extracellular AK activity)

CN1CCOC(c2ccccc2)c2ccccc2C1 (stereo not drawn) [Nefopam hydrochloride]
fold induction at 50 µM [1, 8]: 1.4 | fold induction at 50 µM [2, 9]: 1 | fold induction at 50 µM [3, 10]: 1.4 | fold induction at 50 µM [4, 11]: 0.9 | fold induction at 50 µM [5, 12]: 1.2 | fold induction at 50 µM [6, 13]: 1.1 | fold induction at 50 µM [7, 14]: 1.2

NC[C@@H]1O[C@H](O[C@H]2[C@@H](O)[C@H](O[C@@H]3[C@@H](O)[C@H](N)C[C@H](N)[C@H]3O[C@H]3O[C@H](CN)[C@@H](O)[C@H](O)[C@H]3N)O[C@@H]2CO)[C@H](N)[C@@H](O)[C@@H]1O.O=S(=O)(O)O [Neomycin sulfate]
AK-based Prestwick Library Screening Results: A. baumannii (increase in extracellular AK activity) ([1]; planktonic A. baumannii, 384-well, cutoff for positive-scoring molecules 3-fold increase): 1.4 | AK-based Prestwick Library Screening Results: E. faecium (increase in extracellular AK activity) ([2]; planktonic E. faecium, 384-well, cutoff for positive-scoring molecules 3-fold increase): 1.0 | AK-based Prestwick Library Screening Results: E. cloacae (increase in extracellular AK activity) ([3]; planktonic E. cloacae, 384-well, cutoff for positive-scoring molecules 3-fold increase): 1.3 | AK-based Prestwick Library Screening Results: K. pneumoniae (increase in extracellular AK activity) ([4]; planktonic K. pneumoniae, 384-well, cutoff for positive-scoring molecules 3-fold increase): 1.0 | AK-based Prestwick Library Screening Results: P. aeruginosa (increase in extracellular AK activity) ([5]; planktonic P. aeruginosa, 384-well, cutoff for positive-scoring molecules 3-fold increase): 0.9 | AK-based Prestwick Library Screening Results: S. aureus (increase in extracellular AK activity) ([6]; planktonic S. aureus, 384-well, cutoff for positive-scoring molecules 3-fold increase): 1.1 | AK-based Prestwick Library Screening Results: E. coli (increase in extracellular AK activity) ([7]; planktonic E. coli, 384-well, cutoff for positive-scoring molecules 3-fold increase): 1.2

CN(C)C(=O)Oc1cccc([N+](C)(C)C)c1 [Neostigmine bromide]
fold induction at 50 µM ([1]; planktonic, […], read-out: AK-based Prestwick Library Screening Results, A. baumannii (fold increase in extracellular AK activity)): 1.3 | fold induction at 50 µM ([2]; planktonic, […], read-out: AK-based Prestwick Library Screening Results, E. faecium (fold increase in extracellular AK activity)): 1 | fold induction at 50 µM ([3]; planktonic, […], read-out: AK-based Prestwick Library Screening Results, E. cloacae (fold increase in extracellular AK activity)): 1.2 | fold induction at 50 µM ([4]; planktonic, […], read-out: AK-based Prestwick Library Screening Results, K. pneumoniae (fold increase in extracellular AK activity)): 1 | fold induction at 50 µM ([5]; planktonic, […], read-out: AK-based Prestwick Library Screening Results, P. aeruginosa (fold increase in extracellular AK activity)): 1.1 | fold induction at 50 µM ([6]; planktonic, […], read-out: AK-based Prestwick Library Screening Results, S. aureus (fold increase in extracellular AK activity)): 1.2 | fold induction at 50 µM ([7]; planktonic, […], read-out: AK-based Prestwick Library Screening Results, E. coli (fold increase in extracellular AK activity)): 1.3

O=C(O)c1cccnc1 [Niacin]
fold induction at 50 µM ([1]; planktonic, cutoff for positive-scoring molecules 3-fold increase, read-out: AK-based Prestwick Library Screening Results, A. baumannii (fold increase in extracellular AK activity)): 0.6 | fold induction at 50 µM ([2]; planktonic, cutoff for positive-scoring molecules 3-fold increase, read-out: AK-based Prestwick Library Screening Results, E. faecium (fold increase in extracellular AK activity)): 0.9 | fold induction at 50 µM ([3]; planktonic, cutoff for positive-scoring molecules 3-fold increase, read-out: AK-based Prestwick Library Screening Results, E. cloacae (fold increase in extracellular AK activity)): 0.7 | fold induction at 50 µM ([4]; planktonic, cutoff for positive-scoring molecules 3-fold increase, read-out: AK-based Prestwick Library Screening Results, K. pneumoniae (fold increase in extracellular AK activity)): 0.5 | fold induction at 50 µM ([5]; planktonic, cutoff for positive-scoring molecules 3-fold increase, read-out: AK-based Prestwick Library Screening Results, P. aeruginosa (fold increase in extracellular AK activity)): 0.6 | fold induction at 50 µM ([6]; planktonic, cutoff for positive-scoring molecules 3-fold increase, read-out: AK-based Prestwick Library Screening Results, S. aureus (fold increase in extracellular AK activity)): 0.6 | fold induction at 50 µM ([7]; planktonic, cutoff for positive-scoring molecules 3-fold increase, read-out: AK-based Prestwick Library Screening Results, E. coli (fold increase in extracellular AK activity)): 0.7

O=C(CCNNC(=O)c1ccncc1)NCc1ccccc1 [Nialamide]
fold induction at 50 µM ([1]; planktonic A. baumannii, positive cutoff 3-fold increase, read-out: AK-based Prestwick library screening result, A. baumannii (fold increase in extracellular AK activity)): 1 | fold induction at 50 µM ([2]; planktonic E. faecium, positive cutoff 3-fold increase, read-out: AK-based Prestwick library screening result, E. faecium (fold increase in extracellular AK activity)): 1.1 | fold induction at 50 µM ([3]; planktonic E. cloacae, positive cutoff 3-fold increase, read-out: AK-based Prestwick library screening result, E. cloacae (fold increase in extracellular AK activity)): 1.4 | fold induction at 50 µM ([4]; planktonic K. pneumoniae, positive cutoff 3-fold increase, read-out: AK-based Prestwick library screening result, K. pneumoniae (fold increase in extracellular AK activity)): 0.9 | fold induction at 50 µM ([5]; planktonic P. aeruginosa, positive cutoff 3-fold increase, read-out: AK-based Prestwick library screening result, P. aeruginosa (fold increase in extracellular AK activity)): 1.2 | fold induction at 50 µM ([6]; planktonic S. aureus, positive cutoff 3-fold increase, read-out: AK-based Prestwick library screening result, S. aureus (fold increase in extracellular AK activity)): 1.2 | fold induction at 50 µM ([7]; planktonic E. coli, positive cutoff 3-fold increase, read-out: AK-based Prestwick library screening result, E. coli (fold increase in extracellular AK activity)): 1.2

COC(=O)C1=C(C)NC(C)=C(C(=O)OCCN(C)Cc2ccccc2)C1c1cccc([N+](=O)[O-])c1 (stereo not drawn) [Nicardipine hydrochloride]
fold induction at 50 µM ([1]; planktonic, cutoff for positive 3-fold increase, read-out: AK-based Prestwick Library Screening Results, A. baumannii (fold increase in extracellular AK activity)): 1.3 | fold induction at 50 µM ([2]; planktonic, cutoff for positive 3-fold increase, read-out: AK-based Prestwick Library Screening Results, E. faecium (fold increase in extracellular AK activity)): 1.1 | fold induction at 50 µM ([3]; planktonic, cutoff for positive 3-fold increase, read-out: AK-based Prestwick Library Screening Results, E. cloacae (fold increase in extracellular AK activity)): 1.4 | fold induction at 50 µM ([4]; planktonic, cutoff for positive 3-fold increase, read-out: AK-based Prestwick Library Screening Results, K. pneumoniae (fold increase in extracellular AK activity)): 1 | fold induction at 50 µM ([5]; planktonic, cutoff for positive 3-fold increase, read-out: AK-based Prestwick Library Screening Results, P. aeruginosa (fold increase in extracellular AK activity)): 1.1 | fold induction at 50 µM ([6]; planktonic, cutoff for positive 3-fold increase, read-out: AK-based Prestwick Library Screening Results, S. aureus (fold increase in extracellular AK activity)): 0.6 | fold induction at 50 µM ([7]; planktonic, cutoff for positive 3-fold increase, read-out: AK-based Prestwick Library Screening Results, E. coli (fold increase in extracellular AK activity)): 1.2

CO[C@]12C[C@@H](COC(=O)c3cncc(Br)c3)CN(C)[C@@H]1Cc1cn(C)c3cccc2c13 [Nicergoline]
fold induction at 50 µM [1, 8]: 1.4 | fold induction at 50 µM [2, 9]: 1 | fold induction at 50 µM [3, 10]: 1.2 | fold induction at 50 µM [4, 11]: 1 | fold induction at 50 µM [5, 12]: 1.2 | fold induction at 50 µM [6, 13]: 1.4 | fold induction at 50 µM [7, 14]: 1.3

O=C(Nc1ccc([N+](=O)[O-])cc1Cl)c1cc(Cl)ccc1O [Niclosamide]
fold induction at 50 µM [1, 15]: 0.2 | fold induction at 50 µM [2, 16]: 0.1 | fold induction at 50 µM [3, 17]: 0.5 | fold induction at 50 µM [4, 18]: 0.1 | fold induction at 50 µM [5, 19]: 0.1 | fold induction at 50 µM [6, 20]: 0.4 | fold induction at 50 µM [7, 21]: 0.1

O=C(NCCO[N+](=O)[O-])c1cccnc1 [Nicorandil]
fold induction at 50 µM [1, 15]: 0.8 | fold induction at 50 µM [2, 16]: 0.9 | fold induction at 50 µM [3, 17]: 0.9 | fold induction at 50 µM [4, 18]: 0.8 | fold induction at 50 µM [5, 19]: 0.7 | fold induction at 50 µM [6, 20]: 0.6 | fold induction at 50 µM [7, 21]: 0.9

Reference: patent US10004701B2, “Methods and compositions for treating infection” (UNIVERSITY OF ROCHESTER, priority 2012, dated 2018)
